In brackets after ≈: the same amount, converted by molar mass.
Assays:
[1] = Solubility and hygroscopicity of psilocybin (Polymorph A or A′); assay type: physicochemical; conditions: in Water; form Polymorph A or A′
From the text: In some embodiments, the psilocybin of the disclosure in the form Polymorph A or A′ has the general properties illustrated in Table D.

healthy subjects [2] = test: Positive and Negative Affect Schedule (PANAS); assay type: in vivo, human; conditions: for PANAS-Negative, change from baseline, Mean / PANAS-Positive, change from baseline, Mean: Post-Treatment Day 0, LS mean; for PANAS-Negative, change from baseline, Mean difference / PANAS-Positive, change from baseline, Mean difference: Post-Treatment Day 0
From the text: In some embodiments, the Positive and Negative Affect Schedule (PANAS) is used to evaluate the safety and/or efficacy of psilocybin. The PANAS measures the acute emotional drug effects and comprises 2 mood scales that measure positive and negative affect. Positive affect refers to the propensity to experience positive emotions and interact with others positively. Negative affect involves experiencing the world in a more negative way. Subjects respond to 10 questions associated with negative affect and 10 questions associated with positive affect. The questions are scaled using a 5-point scale that ranges from “slightly or not at all (1)” to “extremely (5)”. A total higher score on the positive affect questions indicates more of a positive effect while a lower score on the negative affect questions indicates less of a negative affect. In some embodiments, after treating according to the methods of the disclosure, a subject experiences a decrease in negative affect score of the PANAS, between about 5% and about 100%, for example about 5%, about 10%, about 15%, about 20%, about 25%, about 30%, about 35%, about 40%, about 45%, about 50%, about 55%, about 60%, about 65%, about 70%, about 75%, about 80%, about 85%, about 90%, about 95%, or about 100%, compared to prior to treatment. In some embodiments, after treating according to the methods of the disclosure, a subject experiences an increase in positive affect score of the PANAS, between about 5% and about 100%, for example about 5%, about 10%, about 15%, about 20%, about 25%, about 30%, about 35%, about 40%, about 45%, about 50%, about 55%, about 60%, about 65%, about 70%, about 75%, about 80%, about 85%, about 90%, about 95%, or about 100%, about 110%, about 120%, about 130%, about 140%, about 150%, about 160%, about 170%, about 180%, about 190%, about 200%, about 210%, about 220%, about 230%, about 240%, about 250%, about 260%, about 270%, about 280%, about 290%, or about 300%, or more, compared to prior to treatment.
The Positive and Negative Affects Schedule (PANAS) score was also evaluated to measure the effect of psilocybin.

healthy subjects [3] = test: Scale of Social Responsibility (SSR); assay type: in vivo, human
Method: In some embodiments, the Scale of Social Responsibility (SSR) is utilized to evaluate the safety and/or efficacy of psilocybin. The SSR measures perceptions regarding the importance of ethics and social responsibility.
The Pictorial Empathy Test (PET), Reading the Mind in the Eyes Test (RMET), Scale of Social Responsibility (SSR), Social Value Orientation (SVO), and Toronto Empathy Questionnaire (TEQ) were performed. Table 20 summarizes the results of the mixed model for repeated measures (MMRM) analysis for each of the aforementioned social cognition panel scales measured on Day 7 and Day 84 after study drug administration.

subjects = conditions: prevalence unknown but likely; cited from earlier work
[4] = Day 7, psilocybin 10 mg - placebo
[5] = Day 7, psilocybin 25 mg - 10 mg
[6] = Day 7, psilocybin 25 mg - placebo
[7] = Day 84, psilocybin 10 mg - placebo
[8] = Day 84, psilocybin 25 mg - 10 mg
[9] = Day 84, psilocybin 25 mg - placebo

What does the source list for `CN(C)CCc1c[nH]c2cccc(OP(=O)(O)O)c12` [Psilocybin, psilocybin]?
solubility [1]: ~15 mg/mL (≈ 52.8 mM); PANAS negative affect, mean increase from baseline (healthy subjects [2]; 25 mg, Day 0 after treatment): 1.3; PANAS-Negative, change from baseline, Mean (healthy subjects [2]; Psilocybin 10 mg): −0.6; PANAS-Positive, change from baseline, Mean (healthy subjects [2]; Psilocybin 10 mg): 0.7; PANAS-Negative, change from baseline, Mean difference (healthy subjects [2]; Psilocybin 10 mg-Placebo): −0.5; PANAS-Positive, change from baseline, Mean difference (healthy subjects [2]; Psilocybin 10 mg-Placebo): 5.7; PANAS-Negative, change from baseline, Mean (healthy subjects [2]; Psilocybin 25 mg): 1.3; PANAS-Positive, change from baseline, Mean (healthy subjects [2]; Psilocybin 25 mg): −0.4; PANAS-Negative, change from baseline, Mean difference (healthy subjects [2]; Psilocybin 25 mg-10 mg): 1.9; PANAS-Positive, change from baseline, Mean difference (healthy subjects [2]; Psilocybin 25 mg-10 mg): −1.0; PANAS-Negative, change from baseline, Mean difference (healthy subjects [2]; Psilocybin 25 mg-Placebo): 1.4; PANAS-Positive, change from baseline, Mean difference (healthy subjects [2]; Psilocybin 25 mg-Placebo): 4.6; SSR compliance social rules change from baseline (LS mean) (healthy subjects [3]; Day 7, psilocybin 10 mg): −0.1; SSR fullfilling expectations change from baseline (LS mean) (healthy subjects [3]; Day 7, psilocybin 10 mg): −0.1; SSR global change from baseline (LS mean) (healthy subjects [3]; Day 7, psilocybin 10 mg): −2.0; SSR compliance social rules change from baseline, LS mean difference (healthy subjects [3]; [4]): 0.0; SSR fullfilling expectations change from baseline, LS mean difference (healthy subjects [3]; [4]): 0.1; SSR global change from baseline, LS mean difference (healthy subjects [3]; [4]): 1.2; SSR compliance social rules change from baseline (LS mean) (healthy subjects [3]; Day 7, psilocybin 25 mg): 0.0; SSR fullfilling expectations change from baseline (LS mean) (healthy subjects [3]; Day 7, psilocybin 25 mg): −0.0; SSR global change from baseline (LS mean) (healthy subjects [3]; Day 7, psilocybin 25 mg): −0.3; SSR compliance social rules change from baseline, LS mean difference (healthy subjects [3]; [5]): 0.1; SSR fullfilling expectations change from baseline, LS mean difference (healthy subjects [3]; [5]): 0.1; SSR global change from baseline, LS mean difference (healthy subjects [3]; [5]): 1.6; SSR compliance social rules change from baseline, LS mean difference (healthy subjects [3]; [6]): 0.1; SSR fullfilling expectations change from baseline, LS mean difference (healthy subjects [3]; [6]): 0.2; SSR global change from baseline, LS mean difference (healthy subjects [3]; [6]): 2.8; SSR compliance social rules change from baseline (LS mean) (healthy subjects [3]; Day 84, psilocybin 10 mg): −0.1; SSR fullfilling expectations change from baseline (LS mean) (healthy subjects [3]; Day 84, psilocybin 10 mg): −0.2; SSR global change from baseline (LS mean) (healthy subjects [3]; Day 84, psilocybin 10 mg): −1.8; SSR compliance social rules change from baseline, LS mean difference (healthy subjects [3]; [7]): −0.0; SSR fullfilling expectations change from baseline, LS mean difference (healthy subjects [3]; [7]): −0.1; SSR global change from baseline, LS mean difference (healthy subjects [3]; [7]): 0.3; SSR compliance social rules change from baseline (LS mean) (healthy subjects [3]; Day 84, psilocybin 25 mg): 0.0; SSR fullfilling expectations change from baseline (LS mean) (healthy subjects [3]; Day 84, psilocybin 25 mg): −0.0; SSR global change from baseline (LS mean) (healthy subjects [3]; Day 84, psilocybin 25 mg): 0.1; SSR compliance social rules change from baseline, LS mean difference (healthy subjects [3]; [8]): 0.1; SSR fullfilling expectations change from baseline, LS mean difference (healthy subjects [3]; [8]): 0.2; SSR global change from baseline, LS mean difference (healthy subjects [3]; [8]): 1.8; SSR compliance social rules change from baseline, LS mean difference (healthy subjects [3]; [9]): 0.1; SSR fullfilling expectations change from baseline, LS mean difference (healthy subjects [3]; [9]): 0.0; SSR global change from baseline, LS mean difference (healthy subjects [3]; [9]): 2.2; Frequency of rare side effects: HPPD/flashbacks; worsening of mental state after drug experience (subjects): unknown but likely <2%)

From patent US20230023092A1, “TREATMENT OF DEPRESSION AND OTHER VARIOUS DISORDERS WITH PSILOCYBIN” (COMPASS […], priority 2019, published 2023)
